This assay deals with T1, Leukotriene, Cysteinyl CysLT1 (Cavia porcellus, UniProt Q2NNR5).
T1 construct: from tissue; host or cells: guinea pig lung membrane
T1 sequence (Q2NNR5 1-340): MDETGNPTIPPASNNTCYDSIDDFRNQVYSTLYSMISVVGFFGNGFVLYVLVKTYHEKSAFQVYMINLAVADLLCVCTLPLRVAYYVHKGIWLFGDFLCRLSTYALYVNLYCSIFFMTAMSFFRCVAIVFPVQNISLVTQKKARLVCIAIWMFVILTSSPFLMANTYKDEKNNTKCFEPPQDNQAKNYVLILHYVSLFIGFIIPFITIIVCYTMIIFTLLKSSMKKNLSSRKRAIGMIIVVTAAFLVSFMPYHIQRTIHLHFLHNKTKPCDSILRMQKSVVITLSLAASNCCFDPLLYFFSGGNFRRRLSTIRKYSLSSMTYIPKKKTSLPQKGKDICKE
The assay can be described thus: receptor radio-ligand-binding assay (Tritiated LTD4 as the ligand), Guinea pig lung membrane. The conditions noted are these: 0.2 nM 3H LTD4, Guinea pig lung membrane; for inhibition at 0.001 µM / inhibition at 0.003 µM / inhibition at 0.01 µM: 0.5 h; for inhibition at 0.001 µM: read-out: % Inhbition (in nM) 1; for inhibition at 0.003 µM: read-out: % Inhbition (in nM) 3; for inhibition at 0.01 µM: read-out: % Inhbition (in nM) 10. On the procedure: The primary in-vitro biological screening for the compounds carried-out involving receptor radio-ligand-binding assay (Tritiated LTD4 as the ligand) by known methods described in literature [a). Mong et al. European Journal of Pharmacology (102); 1984 1-11b). Jones et al; Journal of Physiology & Pharmacology (73); 1994, 191-201 c). MDS Pharma Services: 250460 Leukotriene, Cysteinyl CysLT1]. Accordingly, Guinea pig lung membrane (100 ug) is incubated with 0.2 nM 3H LTD4 in presence of Reference Standard/Test item/Vehicle Control. Non Specific Binding is determined by incubating the membrane with 0.2 nM 3H LTD4 in presence of 1 uM of unlabeled LTD4. The samples are incubated at 26° C. for 30 minutes and are vacuum filtered on a membrane to separate the bound and free radioligand. The membrane is counted in a liquid scintillation counter to calculate the bound radioactivity. Specific Binding in Vehicle treated and Reference Standard/Test item treated set is compared to evaluate the % Inhibition values. Some of the compounds have shown >50% inhibition in the presence of ≦3 nano-molar concentration of the compounds of present invention as shown in the following table.

These results are taken from US9102665B2, “Cysteinyl leukotriene antagonists” (Sun Pharma Advanced Research Company Ltd., priority 2011, dated 2015).

Structures are written as SMILES.

Turning to `CCN(CC)C(=O)c1ccccc1CCC(NC(=O)c1ccccc1C(=O)OC)c1cccc(/C=C/c2ccc3ccc(Cl)cc3n2)c1` (stereo not drawn) [Ia.48, N-[1-{3-[(E)-2-(7-Chloro-quinolin-2-yl)-vinyl]-phenyl}-3-(2-diethylcarbamoyl-phenyl)-propyl]-phthalamic acid methyl ester], where the note is “1 nM test compound”, the inhibition at 0.001 µM was determined as 35%. For the same compound, the inhibition at 0.003 µM (3 nM test compound) worked out at 56%. For the setting “10 nM test compound”, the inhibition at 0.01 µM came out at 65%.

With `C#CCOc1ccc(CCC2(c3cccc(/C=C/c4ccc5ccc(Cl)cc5n4)c3)OCCO2)c(C(=O)O)c1` [Ib.93], the inhibition at 0.001 µM (1 nM test compound) was determined as 14%. Where the note is “3 nM test compound”, the inhibition at 0.003 µM came out at 20%. In addition, the inhibition at 0.01 µM (10 nM test compound) came out at 60%.

For `O=C(O)c1ccccc1CCC(NC(=O)C(F)(F)F)c1cccc(/C=C/c2ccc3ccc(Cl)cc3n2)c1` (stereo not drawn) [Ia.12, 2-[3-{3-[(E)-2-(7-Chloro-quinolin-2-yl)-vinyl]-phenyl}-3-(2,2,2-trifluoro-acetylamino)-propyl]-benzoic acid], the inhibition at 0.001 µM (1 nM test compound) was 5%. Also, the inhibition at 0.003 µM (3 nM test compound) turned out to be 35%. For the same compound, the inhibition at 0.01 µM (10 nM test compound) amounted to 56%.

On to `CCOC(COc1ccc(OC)cc1C(=O)O)c1cccc(C#Cc2ccc3ccc(Cl)cc3n2)c1` (stereo not drawn) [Ia.199, 2-{2-[3-(7-Chloro-quinolin-2-ylethynyl)-phenyl]-2-ethoxy-ethoxy}-5-methoxy-benzoic acid], for which the inhibition at 0.001 µM (1 nM test compound) turned out to be 76%. Also, the inhibition at 0.003 µM (3 nM test compound) was 88%. The inhibition at 0.01 µM (10 nM test compound) turned out to be 97%.

`O=C(N[C@@H](CCc1ccccc1C(=O)O)c1cccc(/C=C/c2ccc3ccc(Cl)cc3n2)c1)c1cccs1` [Ia.69, 2-{(S)-3-{3-[(E)-2-(7-Chloro-quinolin-2-yl)-vinyl]-phenyl}-3-[(thiophene-2-carbonyl)-amino]-propyl}-benzoic acid]: the inhibition at 0.001 µM (1 nM test compound) came to 34%. The inhibition at 0.003 µM (3 nM test compound) turned out to be 56%. In addition, where the note is “10 nM test compound”, the inhibition at 0.01 µM worked out at 72%.

As for `O=C(N[C@H](CCc1ccccc1C(=O)O)c1cccc(/C=C/c2ccc3ccc(Cl)cc3n2)c1)c1ccco1` [Ia.54, 2-{(R)-3-{3-[(E)-2-(7-Chloro-quinolin-2-yl)-vinyl]-phenyl}-3-[(furan-2-carbonyl)-amino]-propyl}-benzoic acid], the inhibition at 0.001 µM (1 nM test compound) is 50%. The inhibition at 0.003 µM (3 nM test compound) amounted to 60%. In addition, the inhibition at 0.01 µM (10 nM test compound) came out at 74%.

Take `CS(=O)(=O)NC(CCc1ccccc1C(=O)O)c1cccc(/C=C/c2ccc3ccc(Cl)cc3n2)c1` (stereo not drawn) [Ia.11, 2-(3-{3-[(E)-2-(7-Chloro-quinolin-2-yl)-vinyl]phenyl}-3-methanesulfonylamino-propyl)-benzoic acid]: for the setting “1 nM test compound”, the inhibition at 0.001 µM turned out to be 46%. In addition, the inhibition at 0.003 µM (3 nM test compound) came out at 56%. The inhibition at 0.01 µM (10 nM test compound) was 71%.

Regarding `O=C(O)c1ccc(C(=O)O)c(CCC2(c3cccc(/C=C/c4ccc5ccc(Cl)cc5n4)c3)OCCO2)c1` [Ib.142], the inhibition at 0.001 µM (1 nM test compound) amounted to 15%. Moreover, the inhibition at 0.003 µM (3 nM test compound) is 49%. For the setting “10 nM test compound”, the inhibition at 0.01 µM worked out at 80%.

In the case of `O=C(O)c1cc2c(cc1CCC1(c3cccc(/C=C/c4ccc5ccc(Cl)cc5n4)c3)OCCO1)OCCO2` [Ib.139], the inhibition at 0.001 µM (1 nM test compound) was 28%. Also, the inhibition at 0.003 µM (3 nM test compound) is 52%. Also, under “10 nM test compound”, the inhibition at 0.01 µM turned out to be 82%.

Take `COc1cc(C(=O)O)c(CCC2(c3cccc(/C=C/c4ccc5ccc(Cl)cc5n4)c3)OCCCO2)cc1[N+](=O)[O-]` [Ib.123]: the inhibition at 0.001 µM (1 nM test compound) amounted to 58%. Moreover, the inhibition at 0.003 µM (3 nM test compound) was 81%. For the same compound, the inhibition at 0.01 µM (10 nM test compound) worked out at 86%.

For `O=C(O)c1ccccc1CCC1(c2cccc(/C=C/c3ccc4ccc(Cl)cc4n3)c2)OCCS1` (stereo not drawn) [Ib.59], where the note is “1 nM test compound”, the inhibition at 0.001 µM was 64%. The inhibition at 0.003 µM (3 nM test compound) is 74%. Where the note is “10 nM test compound”, the inhibition at 0.01 µM came to 97%.

As to `COc1ccc(CCC2(c3cccc(/C=C/c4ccc5ccc(Cl)cc5n4)c3)OCCO2)c(-c2nnn[nH]2)c1` [Ib.135], the inhibition at 0.001 µM (1 nM test compound) came out at 56%. For the same compound, the inhibition at 0.003 µM (3 nM test compound) worked out at 77%. The inhibition at 0.01 µM (10 nM test compound) was determined as 86%.

With `CCOC(COc1ccc(OC)cc1C(=O)NS(C)(=O)=O)c1cccc(/C=C/c2ccc3ccc(Cl)cc3n2)c1` (stereo not drawn) [Ia.157, N-[2-(2-{3-[(E)-2-(7-Chloro-quinolin-2-yl)-vinyl]-phenyl}-2-ethoxy-ethoxy)-5-methoxybenzoyl]-methanesulfonamide], under “1 nM test compound”, the inhibition at 0.001 µM amounted to 62%. Also, for the setting “3 nM test compound”, the inhibition at 0.003 µM was 72%. The inhibition at 0.01 µM (10 nM test compound) was 80%.

With `CC(ON=C(CCc1ccccc1C(C)(C)O)c1cccc(/C=C/c2ccc3ccc(Cl)cc3n2)c1)C(=O)O` (stereo not drawn) [Ib.148], the inhibition at 0.001 µM (1 nM test compound) is 20%. Besides, where the note is “3 nM test compound”, the inhibition at 0.003 µM is 16%. Further, the inhibition at 0.01 µM (10 nM test compound) stood at 31%.

`CCOc1ccc(CCC2(c3cccc(/C=C/c4ccc5ccc(Cl)cc5n4)c3)OCCO2)c(C(=O)O)c1` [Ib.86]: the inhibition at 0.001 µM (1 nM test compound) stood at 6%. For the setting “3 nM test compound”, the inhibition at 0.003 µM was 38%. Moreover, the inhibition at 0.01 µM (10 nM test compound) is 53%.

On to `CN(C(=O)c1ccco1)C(CCc1ccccc1C(=O)O)c1cccc(/C=C/c2ccc3ccc(Cl)cc3n2)c1` (stereo not drawn) [Ia.76, 2-{3-{3-[(E)-2-(7-Chloro-quinolin-2-yl)-vinyl]-phenyl}-3-[(furan-2-carbonyl)-methyl-amino]-propyl}-benzoic acid], for which the inhibition at 0.001 µM (1 nM test compound) amounted to 37%. Further, the inhibition at 0.003 µM (3 nM test compound) amounted to 61%. For the setting “10 nM test compound”, the inhibition at 0.01 µM stood at 67%.

As for `O=C(O)c1ccccc1SCC1(c2cccc(/C=C/c3ccc4ccc(Cl)cc4n3)c2)OCCO1` [Ib.42], under “1 nM test compound”, the inhibition at 0.001 µM was 31%. Moreover, under “3 nM test compound”, the inhibition at 0.003 µM came to 41%. Also, the inhibition at 0.01 µM (10 nM test compound) was 49%.

Regarding `[2H]C([2H])([2H])Oc1ccc(OCC(OCC2CC2)c2cccc(/C=C/c3ccc4ccc(Cl)cc4n3)c2)c(C(=O)O)c1` (stereo not drawn) [Ia.172, 2-(2-{3-[(E)-2-(7-Chloro-quinolin-2-yl)-vinyl]-phenyl}-2-cyclopropylmethoxy-ethoxy)-5-triduetereo methoxy-benzoic acid], the “% Inhbition (in nM) 1” value (1 nM test compound) stood at 50%. Also, for the setting “3 nM test compound”, the “% Inhbition (in nM) 3” value came out at 77%. Further, the “% Inhbition (in nM) 10” value (10 nM test compound) is listed as 88%.

Consider `O=C(c1ccccc1CCC1(c2cccc(/C=C/c3ccc4ccc(Cl)cc4n3)c2)OCCO1)N1CCCC1` [Ib.36, {2-[2-(2-{3-[(E)-2-(7-Chloro-quinolin-2-yl)-vinyl]-phenyl}-[1,3]-dioxolan-2-yl)-ethyl]-phenyl}-pyrrolidin-1-yl-methanone], for which the inhibition at 0.001 µM (1 nM test compound) was found to be 49%. In addition, the inhibition at 0.003 µM (3 nM test compound) turned out to be 91%. Besides, for the setting “10 nM test compound”, the inhibition at 0.01 µM came out at 99%.

Turning to `COc1ccc(C=CC2(c3cccc(/C=C/c4ccc5ccc(Cl)cc5n4)c3)OCCO2)c(C(=O)O)c1` [Ib.79], the inhibition at 0.001 µM (1 nM test compound) was found to be 67%. For the setting “3 nM test compound”, the inhibition at 0.003 µM was 78%. For the same compound, the inhibition at 0.01 µM (10 nM test compound) was determined as 86%.

Regarding `C#CCO[C@H](COc1ccc(OC)cc1C(=O)O)c1cccc(/C=C/c2ccc3ccc(Cl)cc3n2)c1` [Ia.185, 2-((S)-2-{3-[(E)-2-(7-Chloro-quinolin-2-yl)-vinyl]-phenyl}-2-prop-2-ynyloxy-ethoxy)-5-methoxy-benzoic acid], the inhibition at 0.001 µM (1 nM test compound) came to 57%. For the same compound, the inhibition at 0.003 µM (3 nM test compound) was found to be 60%. For the setting “10 nM test compound”, the inhibition at 0.01 µM worked out at 84%.

For the compound `O=C(O)c1ccccc1CCC1(c2cccc(/C=C/c3ccc4ccc(Cl)cc4n3)c2)OCCO1` [Ib.4, 2-[2-(2-{3-[(E)-2-(7-Chloro-quinolin-2yl)-vinyl]phenyl}-[1,3]dioxolan-2yl)-ethyl]-benzoic acid], where the note is “1 nM test compound”, the inhibition at 0.001 µM came out at 33%. The inhibition at 0.003 µM (3 nM test compound) was found to be 41%. The inhibition at 0.01 µM (10 nM test compound) amounted to 62%.

As to `O=C(O)c1cc2c(cc1CCC1(c3cccc(/C=C/c4ccc5ccc(Cl)cc5n4)c3)OCCCO1)OCO2` [Ib.133], the inhibition at 0.001 µM (1 nM test compound) was 41%. For the same compound, for the setting “3 nM test compound”, the inhibition at 0.003 µM was determined as 57%. For the same compound, the inhibition at 0.01 µM (10 nM test compound) amounted to 80%.

Take `Cc1oc(=O)oc1COC(=O)c1ccccc1CCC1(c2cccc(/C=C/c3ccc4ccc(Cl)cc4n3)c2)OCCO1` [Ib.11]: the inhibition at 0.001 µM (1 nM test compound) is 32%. Moreover, the inhibition at 0.003 µM (3 nM test compound) turned out to be 60%. Besides, the inhibition at 0.01 µM (10 nM test compound) came to 74%.

For the compound `CC(=O)OC(CSc1ccccc1C(=O)O)c1cccc(/C=C/c2ccc3ccc(Cl)cc3n2)c1` (stereo not drawn) [Ia.118, 2-(2-Acetoxy-2-{3-[(E)-2-(7-chloro-quinolin-2-yl)-vinyl]-phenyl}-ethylsulfanyl)-benzoic acid], where the note is “1 nM test compound”, the inhibition at 0.001 µM amounted to 33%. Further, the inhibition at 0.003 µM (3 nM test compound) was found to be 46%. For the same compound, the inhibition at 0.01 µM (10 nM test compound) was found to be 52%.
